Experimental findings from patent publication US9271971B2, “Pyrido[3,4-B]indoles and methods of use” (Medivation Technologies, Inc., priority 2009, dated 2016) are described below.

Assay [1] concerns the target T1, human recombinant serotonin (5-Hydroxytryptamine) 5-HT6 receptor (Homo sapiens, UniProt P50406).
T1 construct: expressed in transfected cells; host or cells: human HeLa cells
Kind of assay: Serotonin 5-HT6 radioligand binding assay. To be noted: [3H]LSD specific binding; for inhibition at 1 µM: read-out: Percent Inhibition of ligand binding, Serotonin (1 μM ligand concentration) 5-HT6. How it is done: To evaluate in radioligand binding assays the activity of compounds of the invention, human recombinant serotonin (5-Hydroxytryptamine) 5-HT6 receptor expressed in human HeLa cells [Monsma, F. J. Jr et al., Mol. Pharmacol. (1993), 43:320] in a modified Tris-HCl buffer (50 mM Tris-HCl, pH 7.4, 150 mM NaCl, 2 mM Ascorbic Acid, 0.001% BSA) was used. Compounds of the invention were incubated with 1.5 nM [3H]Lysergic acid diethylamide (LSD) for 120 min. at 37° C. Non-specific binding was estimated in the presence of 5 μM Serotonin (5-HT). Receptor proteins were filtered and washed, the filters were then counted to determine[3H]LSD specifically bound. Compounds were screened at 1 μM or lower, using 1% DMSO as vehicle. Biochemical assay results are presented as the percent inhibition of specific binding in Table 4.

In assay [2] the target is T2, human recombinant adrenergic α1D receptor (Homo sapiens, UniProt P25100).
T2 construct: expressed in transfected cells; host or cells: human embryonic kidney (HEK-293) cells
T2 sequence (P25100 1-572): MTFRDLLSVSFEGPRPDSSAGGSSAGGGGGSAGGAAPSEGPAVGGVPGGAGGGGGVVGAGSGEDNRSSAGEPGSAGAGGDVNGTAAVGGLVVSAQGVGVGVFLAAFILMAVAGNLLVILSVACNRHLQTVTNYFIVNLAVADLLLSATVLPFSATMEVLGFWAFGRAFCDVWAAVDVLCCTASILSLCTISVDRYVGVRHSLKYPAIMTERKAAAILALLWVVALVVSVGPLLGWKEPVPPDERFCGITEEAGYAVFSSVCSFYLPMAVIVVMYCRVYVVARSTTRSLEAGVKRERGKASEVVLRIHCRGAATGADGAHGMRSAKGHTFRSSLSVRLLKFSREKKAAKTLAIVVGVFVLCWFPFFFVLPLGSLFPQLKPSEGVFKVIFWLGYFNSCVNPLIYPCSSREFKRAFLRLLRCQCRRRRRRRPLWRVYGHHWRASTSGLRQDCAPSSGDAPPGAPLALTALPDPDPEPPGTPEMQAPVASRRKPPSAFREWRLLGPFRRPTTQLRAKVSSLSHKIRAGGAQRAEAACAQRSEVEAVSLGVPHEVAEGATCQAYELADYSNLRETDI
Put plainly: Adrenergic α1D radioligand binding assay. The following applies: [3H]Prozosin specific binding; for inhibition at 1 µM: read-out: Percent Inhibition of ligand binding, Adrenergic (1 μM ligand conc.) α1D; for inhibition at 0.1 µM: read-out: Percent Inhibition of ligand binding, Adrenergic (0.1 μM ligand conc.) α1D. The method, then: To evaluate in radioligand binding assays the activity of compounds of the invention, human recombinant adrenergic α1D receptor expressed in human embryonic kidney (HEK-293) cells [Kenny, B. A. et al. Br. J. Pharmacol. (1995), 115(6):981] in a 50 mM Tris-HCl buffer, pH 7.4, was used. Compounds of invention were incubated with 0.6 nM [^3H]Prozosin for 60 min. at 25° C. Non-specific binding was estimated in the presence of 10 μM phentolamine. Receptor proteins were filtered and washed, the filters were then counted to determine [^3H]Prozosin specifically bound. Compounds were screened at 1 μM or lower, using 1% DMSO as vehicle. Compounds of the invention were tested in this biochemical assay. Biochemical assay results for representative compounds were presented as the percent inhibition of specific binding in Table 3.

The target of assay [3] is T3, human recombinant histamine H2 receptor (Homo sapiens, UniProt P25021).
T3 construct: expressed in transfected cells; host or cells: Chinese hamster ovary (CHO) K1 cells
Kind of assay: Histamine H2 radioligand binding assay. To be noted: [125I]Aminopotentidine specific binding; for inhibition at 1 µM: read-out: Percentage Inhibition, Histamine Binding (1 μM) H2. The method, then:
To evaluate in radioligand binding assays the activity of compounds of the invention, human recombinant histamine H2 receptor expressed in Chinese hamster ovary (CHO) K1 cells [Ruat, M., Proc. Natl. Acad. Sci. USA. (1990), 87(5):1658] in a 50 mM Phosphate buffer, pH 7.4 was used. Compounds of the invention were incubated with 0.1 nM [^125I]Aminopotentidine for 120 min. at 25° C. Non-specific binding was estimated in the presence of 3 μM Tiotidine. Receptor proteins were filtered and washed, the filters were then counted to determine [^125I]Aminopotentidine specifically bound. Compounds were screened at 1 μM or lower, using 1% DMSO as vehicle. Biochemical assay results are presented as the percent inhibition of specific binding in Table 2.

Assay [4] addresses T4, human recombinant adrenergic α2B receptor (Homo sapiens, UniProt P18089).
T4 construct: expressed in transfected cells; host or cells: Chinese hamster ovary (CHO-K1) cells
T4 sequence (P18089 1-450): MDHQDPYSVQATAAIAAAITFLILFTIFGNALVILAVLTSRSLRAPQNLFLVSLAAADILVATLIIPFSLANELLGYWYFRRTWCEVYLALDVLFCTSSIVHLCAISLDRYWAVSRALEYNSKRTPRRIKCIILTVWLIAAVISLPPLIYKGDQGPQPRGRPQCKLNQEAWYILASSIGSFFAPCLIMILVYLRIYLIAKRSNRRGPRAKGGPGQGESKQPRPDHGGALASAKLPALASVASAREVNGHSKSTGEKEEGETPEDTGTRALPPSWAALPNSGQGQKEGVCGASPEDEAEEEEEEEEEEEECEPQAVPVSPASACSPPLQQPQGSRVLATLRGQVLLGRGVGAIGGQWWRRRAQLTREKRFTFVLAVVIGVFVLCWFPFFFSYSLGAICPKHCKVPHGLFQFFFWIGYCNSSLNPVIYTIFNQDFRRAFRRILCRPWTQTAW
Put plainly: Adrenergic α2B radioligand binding assay. The following applies: [3H]Rauwolscine specific binding; for inhibition at 1 µM: read-out: Percent Inhibition of ligand binding, Adrenergic (1 μM ligand conc.) α2B; for inhibition at 0.1 µM: read-out: Percent Inhibition of ligand binding, Adrenergic (0.1 μM ligand conc.) α2B. The method, then:
To evaluate in radioligand binding assays the activity of compounds of the invention, human recombinant adrenergic α2B receptor expressed in Chinese hamster ovary (CHO-K1) cells [Uhlen, S et al., Eur J Pharmacol. (1998), 343(1):93] in a modified Tris-HCl buffer (50 mM Tris-HCl, pH 7.4, 12.5 mM MgCl2, 1 mM EDTA, 0.2% BSA) was used. Compounds of the invention were incubated with 2.5 nM [^3H]Rauwolscine for 60 min. at 25° C. Non-specific binding was estimated in the presence of 10 μM Prozosin. Receptor proteins were filtered and washed, the filters were then counted to determine [^3H]Rauwolscine specifically bound. Compounds were screened at 1 μM or lower, using 1% DMSO as vehicle. Compounds of the invention were tested in this biochemical assay. Biochemical assay results for representative compounds were presented as the percent inhibition of specific binding in Table 3.

T1 sequence (P50406 whole entry): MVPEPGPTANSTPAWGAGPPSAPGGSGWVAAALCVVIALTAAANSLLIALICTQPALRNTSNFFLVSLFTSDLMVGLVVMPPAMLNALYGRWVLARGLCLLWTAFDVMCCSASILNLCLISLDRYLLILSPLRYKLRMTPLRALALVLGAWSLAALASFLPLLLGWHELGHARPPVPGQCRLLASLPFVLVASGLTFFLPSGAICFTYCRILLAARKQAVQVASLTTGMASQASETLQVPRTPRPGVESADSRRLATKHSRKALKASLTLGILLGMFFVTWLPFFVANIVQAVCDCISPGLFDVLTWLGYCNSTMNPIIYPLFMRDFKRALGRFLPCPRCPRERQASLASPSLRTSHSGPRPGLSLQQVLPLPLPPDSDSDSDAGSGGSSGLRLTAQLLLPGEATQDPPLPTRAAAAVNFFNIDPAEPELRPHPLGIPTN
T3 sequence (P25021 whole entry): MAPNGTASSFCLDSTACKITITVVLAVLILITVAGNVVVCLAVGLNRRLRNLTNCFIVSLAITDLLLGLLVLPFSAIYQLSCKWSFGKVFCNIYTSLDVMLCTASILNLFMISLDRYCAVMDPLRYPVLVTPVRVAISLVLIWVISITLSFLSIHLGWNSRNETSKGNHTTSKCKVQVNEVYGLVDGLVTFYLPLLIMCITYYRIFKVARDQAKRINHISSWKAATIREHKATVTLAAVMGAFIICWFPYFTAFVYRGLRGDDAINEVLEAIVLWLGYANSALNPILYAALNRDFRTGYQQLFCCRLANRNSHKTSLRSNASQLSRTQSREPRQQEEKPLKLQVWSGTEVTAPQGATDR

For `C/C(=C\n1c2c(c3cc(C)ccc31)C1CCN(C2)C1)c1ccc(Cl)cc1Cl` (centres unmarked) [Compound 34], the “Percent Inhibition of ligand binding, Serotonin (1 μM ligand concentration) 5-HT6” value in assay [1] is reported as 21%. Besides, the “Percent Inhibition of ligand binding, Adrenergic (1 μM ligand conc.) α1D” value in assay [2] (1 μM) is 11%. In addition, the “Percentage Inhibition, Histamine Binding (1 μM) H2” value in assay [3] (1 µM) stood at 40%. Moreover, the “Percent Inhibition of ligand binding, Adrenergic (1 μM ligand conc.) α2B” value in assay [4] (1 μM) is 55%.
Consider `Cc1ccc2c(c1)c1c(n2CC(C)(O)c2ccc(F)cc2F)CN2CCC1C2` (centres unmarked) [Compound 17], for which the inhibition at 1 µM was determined as 9% in assay [1], 19% in assay [2] (1 μM), 4% in assay [3] and 90% in assay [4] (1 μM).
For `Cc1ccc2c(c1)c1c(n2CC(=O)N(C)C)CN2CCC1C2` (centres unmarked) [Compound 27] the same measures were 5%, 9%, -3% and -15%.
`Cc1ccc2c(c1)c1c(n2CC(=O)N2CCNCC2)CN2CCC1C2` (centres unmarked) [Compound 24]: the inhibition at 1 µM in assay [1] was 5%; in assay [2] (1 μM), 2%; in assay [3], -3%; in assay [4] (1 μM), -4%.
Take `Cc1ccc2c(c1)c1c(n2C#Cc2ccc(Cl)cc2)CN2CCC1C2` (centres unmarked) [Compound 35]: the inhibition at 1 µM in assay [1] came out at 12%; in assay [3], 19%.
As to `Cc1ccc2c(c1)c1c(n2CC(=O)N2CCOCC2)CN2CCC1C2` (centres unmarked) [Compound 26], the inhibition at 1 µM is 4% in assay [1], 6% in assay [2] (1 μM), -1% in assay [3] and 7% in assay [4] (1 μM).
As to `Cc1ccc2c(c1)c1c(n2CC(=O)NC2CCCCC2)CN2CCC1C2` (centres unmarked) [Compound 23], the inhibition at 1 µM in assay [1] is 4%; in assay [2] (1 μM), 18%; in assay [3], -3%; in assay [4] (1 μM), -6%.
Taken in the same sequence, the figures for `Cc1ccc(/C=C/n2c3c(c4cc(C)ccc42)C2CCN(C3)C2)cc1` (centres unmarked) [Compound 10] were -4%, 73%, 6% and 66%.
As for `Cc1ccc2c(c1)c1c(n2C(=O)Cc2ccc(Cl)cc2)CN2CCC1C2` (centres unmarked) [Compound 36], the inhibition at 1 µM is 38% in assay [1] and 20% in assay [3]. Besides, the inhibition at 0.1 µM in assay [2] is -2%; in assay [4] it was 13%.
Turning to `C=C(Cn1c2c(c3cc(C)ccc31)C1CCN(C2)C1)c1ccc(F)cc1` (centres unmarked) [Compound 3], the inhibition at 1 µM in assay [1] is 105%; in assay [2] (1 μM) it was 93%; in assay [3], 25%; in assay [4] (1 μM) it was 93%.
As for `Cc1ccc2c(c1)c1c(n2CCc2ccccn2)CN2CCC1C2` (centres unmarked) [Compound 11], the inhibition at 1 µM in assay [1] was 20%; in assay [2] (1 μM), 26%; in assay [3] it was -2%; in assay [4] (1 μM), 48%.
On to `C/C(=C\n1c2c(c3cc(C)ccc31)C1CCN(C2)C1)c1ccncc1` (centres unmarked) [Compound 44], for which the inhibition at 1 µM in assay [1] is 97%; in assay [3] it was -3%. Further, the inhibition at 0.1 µM in assay [2] is 8%; in assay [4], 9%.
For `COc1ccc(/C(C)=C/n2c3c(c4cc(C)ccc42)C2CCN(C3)C2)cc1` (centres unmarked) [Compound 45] the same measures were 80%, 21%, -1% and 15%.
As to `Cc1ccc2c(c1)c1c(n2CC(C)(O)c2ccc(Cl)cc2Cl)CN2CCC1C2` (centres unmarked) [Compound 14], the inhibition at 1 µM was 1% in assay [1], -5% in assay [2] (1 μM), 24% in assay [3] and 68% in assay [4] (1 μM).
Taken in the same sequence, the figures for `Cc1ccc2c(c1)c1c(n2CC(C)(O)c2ccc(Cl)cc2)CN2CCC1C2` (centres unmarked) [Compound 16] were 29%, 24%, 10% and 103%.
Turning to `Cc1ccc2c(c1)c1c(n2CCc2ccc(C)nc2)CN2CCC1C2` (centres unmarked) [Compound 12], the inhibition at 1 µM in assay [1] was 2%; in assay [2] (1 μM), 25%; in assay [3] it was 4%; in assay [4] (1 μM) it was 16%.
Consider `C/C(=C\n1c2c(c3cc(C)ccc31)C1CCN(C2)C1)c1ccc(F)c(F)c1` (centres unmarked) [Compound 39], for which the figures for the inhibition at 1 µM in assay [1] and in assay [3] were 81% and 20%, respectively.
For `C/C(=C\n1c2c(c3cc(C)ccc31)C1CCN(C2)C1)c1cccnc1` (centres unmarked) [Compound 42] the same measures were 26% and 1%.
On to `Cc1ccc2c(c1)c1c(n2C(=O)Cc2ccc(F)cc2)CN2CCC1C2` (centres unmarked) [Compound 43], for which the inhibition at 1 µM in assay [1] and in assay [3] was 7% throughout.
With `COc1ccc(/C(C)=C/n2c3c(c4cc(C)ccc42)C2CCN(C3)C2)cc1F` (centres unmarked) [Compound 41], the inhibition at 1 µM in assay [1] came out at 48%; in assay [3] it was 24%.
Taken in the same sequence, the figures for `C/C(=C/n1c2c(c3cc(C)ccc31)C1CCN(C2)C1)c1ccccc1F` (centres unmarked) [Compound 37] were 70% and 22%.
Taken in the same sequence, the figures for `C/C(=C\n1c2c(c3cc(C)ccc31)C1CCN(C2)C1)c1ccc(Cl)c(Cl)c1` (centres unmarked) [Compound 40] were 12% and 39%.
